Three compounds from patent US20210024498A1, “TETRAHYDROPYRROLE COMPOUND, PREPARATION METHOD THEREFOR, PHARMACEUTICAL COMPOSITION CONTAINING SAME, AND USE THEREOF” (MEDICONNS (SHANGHAI) BIOPHARMACEUTICAL CO., LTD, priority 2017, published 2021) can be followed below.

As a reminder, the IC50 is the concentration at which inhibition is half-maximal.

Molecules are shown by their SMILES. Entries after “also recorded” stand apart in the source; their conditions may differ.

For assay [1], the system named is Amphetamine-induced high locomotor activity in mice. Briefly: Amphetamine-induced high locomotor activity (LMA) in mice. The assay is classed as in vivo. To be noted: for Effect on Amphetamine-induced high locomotor activity compared with olanzapine (in words) / Inhibition of Amphetamine-induced high locomotor activity (in words): 5, 10, 20 mg/kg; for Effect on Amphetamine-induced high locomotor activity compared with olanzapine (in words): p.o. vs olanzapine 5.0 mg/kg p.o.; for Inhibition of Amphetamine-induced high locomotor activity (in words): p.o., P<0.05-0.01; for Distance resulting from the activity, First 30 min / Distance resulting from the activity, Last 30 min: Amphetamine 1.0 mg/kg s.c., male ICR mice. The arrangement: Distance resulting from the activity, First 30 min / Distance resulting from the activity, Last 30 min: unit not given here. Here is the method:
The test compound MDC was a milky white powder and stored in a shade and cool place (formulated with 1% DMSO before use). […] Amphetamine, purchased from Sigma-Aldrich, was a white powder (formulated with normal saline before use). 1% DMSO was formulated by diluting pure DMSO (purity>99.5, purchased from Sigma) with normal saline.
(§1) Male ICR mice having weight 22±2 g were kept at 8 mice/cage with 12/12 hours light/dark cycle, temperature 23° C.±1° C., humidity 50% to 60%, free to eat and drink water.
The administration volume was 0.1 ml/10 g body weight; Amphetamine was freshly formulated with normal saline at a dose of 1.0 mg/kg and administered subcutaneously.
(§2) After one week of acclimation, mice were randomly divided into 6 groups according to their body weight: negative control group, model group, positive control group, and low dose group, medium dose group and high dose group for the test compound. 8-10 animals/group.
(§3) Group 1: Negative control group: Normal saline (s.c.)+1% DMSO (10.0 ml/kg, p.o.);
Group 2: Model group: Amphetamine (1.0 mg/kg, s.c.)+1% DMSO (10.0 ml/kg, p.o.);
Group 4: MDC low dose group: Amphetamine (1.0 mg/kg, s.c.)+MDC (5 mg/kg, p.o.);
Group 5: MDC medium dose group: Amphetamine (1.0 mg/kg, s.c.)+MDC (10 mg/kg, p.o.);
Group 6: MDC high dose group: Amphetamine (1.0 mg/kg, s.c.)+MDC (20 mg/kg, p.o.).
After administration, the animals were immediately placed in a locomotor activity box and recorded by Shanghai Jiliang animal video analysis system for 1 hour.
(§4) After the experiment, the activity of the animals within 1 hour was analyzed using the trajectory analysis software of Shanghai Jiliang animal video analysis system to obtain the total distance resulting from the activity.

In another assay the target is T1, D2 receptor (Homo sapiens, UniProt P14416).
T1 construct: expressed in transfected cells; host or cells: HEK293
T1 sequence (P14416 whole entry): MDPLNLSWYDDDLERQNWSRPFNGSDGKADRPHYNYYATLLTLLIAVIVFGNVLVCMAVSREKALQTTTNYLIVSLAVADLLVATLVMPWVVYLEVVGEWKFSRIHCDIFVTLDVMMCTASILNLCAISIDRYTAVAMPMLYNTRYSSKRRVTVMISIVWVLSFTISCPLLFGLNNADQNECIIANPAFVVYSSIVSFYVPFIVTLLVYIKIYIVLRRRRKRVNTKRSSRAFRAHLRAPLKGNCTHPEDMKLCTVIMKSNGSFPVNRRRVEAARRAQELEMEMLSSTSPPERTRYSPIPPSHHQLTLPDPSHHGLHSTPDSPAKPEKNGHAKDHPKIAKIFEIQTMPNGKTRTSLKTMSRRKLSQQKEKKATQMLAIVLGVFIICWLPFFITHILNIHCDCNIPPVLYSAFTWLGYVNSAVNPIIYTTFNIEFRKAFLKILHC
Briefly: D2 receptor function assay, calcium mobilization (FLIPR). In kind it is cell-based. To be noted: HEK293, antagonism of D2 receptor. Here is the method: Bioactivity Test • I. D2 receptor affinity assay: The affinity of the compound to D2 receptor was determined by radioligand competition assay, and the cloned D2 receptor was expressed in HEK293 cell line. • II. D2 receptor function assay: The ability of the compound to antagonize the D2 receptor was determined using a calcium mobilization assay (FLIPR). • III. DAT receptor function assay: The ability of the compound to inhibit DAT was determined by neurotransmitter transporter absorption assay.
• Cell line: HEK293 • DMEM medium (Invitrogen) • Fetal bovine serum (FBS, Invitrogen) • L-Glutamine (Invitrogen) G418 (Invitrogen) • Blasticidin (Invitrogen)
• Fluo-4 Direct Kit (Invitrogen)
• 250 mM Probenecid solution was formulated: according to the kit instructions, 1 mL of FLIPR buffer salt solution was added to 77 mg probenecid just before needed. • 2× (8 μM) Fluo-4 Direct™ loading buffer was formulated: the number of tubes in Fluo-4 Direct™ needed for the experiment was melted in advance. Just before needed, 10 ml of FLIPR buffer salt solution and 0.2 mL of 250 mM Probenecid solution were added to each tube and vortexed in dark for more than 5 minutes.
• a) One tube of cells was taken from the liquid nitrogen tank and quickly thawed in 37° C. water bath. • b) The cell suspension was added to a centrifuge tube to which the preheated 20 ml medium was added in advance. • c) The centrifuge tube was centrifuged at 1000 rpm for 5 minutes at room temperature. • d) The supernatant was slowly decanted to avoid affecting the precipitated cells. • e) The cells were resuspended with 10-30 ml medium by pipetting the cells gently with a pipette. • f) The viability and number of cells were calculated with the cell counter. • g) The cells were diluted to 1×10^5 cells/ml with medium, and inoculated in the 384-well polylysine coated cell plate at 20 μL/well. • h) The plate was incubated in an incubator at 5% CO2, 37° C. for 16 to 20 hours.
10 μL of experimental buffer salt solution was added into the cell plate according to the set program, and the fluorescence signal was read. 10 μL of agonist reference compound was further added at a given concentration to the cell plate and the fluorescence signal was read. After reading, the data was derived by “Max-Min” and “Read 90 to Maximum Allowed” methods in the software and EC80 of the corresponding cell line was calculated, and the reference compound with a concentration of 6× EC80 was prepared. • f) The FLIPR instrument software was run. 10 μL of the compound to be tested and the reference compound at a given concentration were added into the cell plate according to the set program, and the fluorescence signal was read. 10 μL of reference compound agonist was further added at a concentration of 6× EC80 to the cell plate and the fluorescence signal was read. • g) Data Analysis • Calculation formula for data in the project:
Inhibitor % activity=100−(signal value per well−average value for high dose control group of inhibitor)/(average value for DMSO control group−average value for high dose control group of inhibitor)*100%.
(Calcium assays in cells follow changes in intracellular calcium, usually with a dye or a luminescent sensor.)

The test system of assay [2] is PCP-induced high locomotor activity in mice. Briefly: Phencyclidine (PCP) induced high locomotor activity (LMA) in mice. In kind it is in vivo. The arrangement: Distance resulting from the activity, First 30 min / Distance resulting from the activity, Last 30 min: unit not given here. The note with it: for Effect on PCP-induced high locomotor activity compared with olanzapine (in words) / Inhibition of PCP-induced high locomotor activity (in words): 5, 10, 20 mg/kg; for Effect on PCP-induced high locomotor activity compared with olanzapine (in words): p.o. vs olanzapine 5 mg/kg p.o.; for Inhibition of PCP-induced high locomotor activity (in words): p.o., P<0.05-0.01; for Distance resulting from the activity, First 30 min / Distance resulting from the activity, Last 30 min: PCP 5.0 mg/kg s.c., male ICR mice.
Excerpt: • 1. The effect of the compound on phencyclidine (PCP) induced high locomotor activity (LMA) in mice was detected.
The test compound MDC was milky white powder and stored in a shade and cool place (freshly formulated with 1% DMSO before use). […] Phencyclidine (PCP), purchased from Sigma Aldrich, was a grayish white powder (freshly formulated with normal saline before use). 1% DMSO was formulated by diluting pure DMSO (purity>99.5, purchased from Sigma-Aldrich) with normal saline.
as §1
The administration volume was 0.1 ml/10 g body weight; PCP was formulated with normal saline at a dose of 5 mg/kg.
The test compound MDC and olanzapine were administered by gavage and PCP was administered by subcutaneous injection.
as §2, §3
Group 2: Model group: PCP (5.0 mg/kg, s.c.)+1% DMSO (10.0 ml/kg, p.o.);
Group 4: MDC low dose group: PCP (5.0 mg/kg, s.c.)+MDC (5 mg/kg, p.o.);
Group 5: MDC medium dose group: PCP (5.0 mg/kg, s.c.)+MDC (10 mg/kg, p.o.);
Group 6: MDC high dose group: PCP (5.0 mg/kg, s.c.)+MDC (20 mg/kg, p.o.).
After oral administration, the animals were immediately placed in a locomotor activity box and recorded by Shanghai Jiliang ( ? ) animal video analysis system for 1 hour.
as §4

[3] abbreviates: 5 mg/kg p.o. (low dose group; olanzapine positive control).
Setting [4] is: 10 mg/kg p.o. (medium dose group).
Setting [5] is: 20 mg/kg p.o. (high dose group).

`Oc1cccc(C2CCN(Cc3c[nH]c4ccccc34)C2)c1` (racemic) [MDC-161502-002, 1-(indole-3-methyl)-3-(3-hydroxyphenyl)pyrrolidine]: the “Effect on Amphetamine-induced high locomotor activity compared with olanzapine (in words)” value in assay [1] is given as “equivalent to olanzapine; also recorded: better than olanzapine”. Also, the “Inhibition of Amphetamine-induced high locomotor activity (in words)” value in assay [1] is recorded as “significantly inhibited”. Moreover, the “Distance resulting from the activity, First 30 min” value (shortened to “Distance resulting … First 30 min”) in assay [1] (setting [3]) was 284824; in assay [1] (setting [4]) it was 250678; in assay [1] (setting [5]) it was 180127; in assay [2] (setting [3]), 241185; in assay [2] (setting [4]), 211543; in assay [2] (setting [5]) it was 158231. The “Distance resulting from the activity, Last 30 min” value (“Distance resulting … Last 30 min” for short) in assay [1] (setting [3]) came out at 257329; in assay [1] (setting [4]) it was 231296; in assay [1] (setting [5]), 148036; in assay [2] (setting [3]), 265712; in assay [2] (setting [4]), 206789; in assay [2] (setting [5]), 110918. The IC50 at D2 receptor stood at 2 nM. The “Effect on PCP-induced high locomotor activity compared with olanzapine (in words)” value in assay [2] is listed as “equivalent to the effect of the positive drug olanzapine; also recorded: significant advantages over olanzapine”. For the same compound, the “Inhibition of PCP-induced high locomotor activity (in words)” value in assay [2] was “inhibited PCP-induced high locomotor activity in mice”.
With `O=S(=O)(CC(F)(F)F)Nc1cccc(C2CCN(Cc3c[nH]c4ccccc34)C2)c1` (stereo not shown) [MDC-161502-006, 1-(indole-3-methyl)-3-(3-trifluoroethanesulfonamidophenyl)pyrrolidine], the “Distance resulting … First 30 min” value is recorded as 340368 in assay [1] (setting [3]); 298763 in assay [1] (setting [4]); 270378 in assay [1] (setting [5]); 327586 in assay [2] (setting [3]); 286745 in assay [2] (setting [4]); 248576 in assay [2] (setting [5]). Further, the “Distance resulting … Last 30 min” value in assay [1] (setting [3]) is on record as 318973; in assay [1] (setting [4]), 257632; in assay [1] (setting [5]) it was 231584; in assay [2] (setting [3]) it was 302499; in assay [2] (setting [4]), 267834; in assay [2] (setting [5]), 230867. Moreover, the IC50 at D2 receptor stood at 171 nM.
In the case of `O=S(=O)(Nc1cccc(C2CCN(Cc3c[nH]c4ccccc34)C2)c1)c1cccs1` (stereo not shown) [MDC-161502-008, 1-(indole-3-methyl)-3-[3-(2-thiophenesulfonamido)phenyl]pyrrolidine], the “Effect on Amphetamine-induced high locomotor activity compared with olanzapine (in words)” value in assay [1] was “equivalent to olanzapine”. Moreover, the “Inhibition of Amphetamine-induced high locomotor activity (in words)” value in assay [1] is “significantly inhibited”. Further, the “Distance resulting … First 30 min” value in assay [1] (setting [3]) worked out at 287643; in assay [1] (setting [4]), 253945; in assay [1] (setting [5]) it was 209673; in assay [2] (setting [3]), 299745; in assay [2] (setting [4]), 246900; in assay [2] (setting [5]), 220968. The “Distance resulting … Last 30 min” value in assay [1] (setting [3]) is on record as 264309; in assay [1] (setting [4]) it was 220678; in assay [1] (setting [5]), 219876; in assay [2] (setting [4]) it was 230876; in assay [2] (setting [5]), 189765. Besides, the IC50 on D2 receptor came to 5.4 nM. Besides, in assay [2], the “Effect on PCP-induced high locomotor activity compared with olanzapine (in words)” value is listed as “equivalent to the effect of the positive drug olanzapine”. Further, in assay [2], the “Inhibition of PCP-induced high locomotor activity (in words)” value is listed as “inhibited PCP-induced high locomotor activity in mice”.
